Data from patent publication US20250135021A1, “USE OF ANTIBODY-DRUG CONJUGATE, AND COMBINED DRUG AND USE THEREOF” (SHANGHAI MIRACOGEN INC., priority 2021, published 2025).

Key:
[1] = test system: human lung cancer PDX model LUN #2210-106; assay: Efficacy of MYK-3, AK103 and their combination in human lung cancer PDX model LUN #2210-106 in Hu-HSC-NPG mice; type: in vivo; conditions: Day 20
Procedure: LUN #2210-106 is an AZD9291-resistant human adenosquamous carcinoma of the lung PDX model. This experiment was performed in total of 4 groups, including a Vehicle group (ADC-3 vehicle), an ADC-3 administration group (1 mg/kg), an AK103 administration group (5 mg/kg), and an ADC-3 (1 mg/kg)+AK103 (5 mg/kg) administration group. During the entire experiment, ADC-3 was administered three times in total for the ADC-3 single-drug administration group, via tail vein injection on Day 0, Day 4, and Day 8; and AK103 was administered every three days via tail vein injection for the AK103 single-drug administration group, 8 times in total. For the ADC-3+AK103 administration group, ADC-3 was administered three times, and AK103 was administered ten times in total, and their administration modes were the same as those for the single-drug administration groups. The experiment period was 34 days. […] During the period from Day 20 to Day 34, the mean tumor volume of animals in the ADC-3 (1 mg/kg) administration group gradually resumed growth (from 184 mm^3 to 893 mm^3); the mean tumor volume of animals in the ADC-3 (1 mg/kg)+AK103 (5 mg/kg) administration group grew slowly (from 38 mm^3 to 126 mm^3), and on Day 34, complete tumor regression was still observed in 1 out of 6 animals.

[2] = test system: AZD9291-resistant human lung adenocarcinoma PDX model LUN #2005-143; assay: Efficacy in AZD9291-resistant human lung cancer PDX model LUN #2005-143; type: in vivo, immunodeficient mice; conditions: Day 29
Text: (§1) The human-derived tumor tissue xenograft model (PDX model) is a tumor model established in immunodeficient mice using human tumor tissue, which retains the heterogeneity, molecular diversity and histological characteristics of the primary tumor to the greatest extent. It has a high predictive value for the clinical therapeutic effect of drugs and has been increasingly used in cancer research (Hidalgo-2014) in recent years. […] In all experiments, the commercially available third-generation EGFR inhibitor AZD9291 was used as a reference drug to compare tumor inhibition activities.
LUN #2005-143 is an AZD9291-resistant human lung adenocarcinoma (a type of NSCLC) PDX model. This experiment was performed in total of 4 groups, including a Vehicle group (ADC-3 vehicle), an AZD9291 administration group (5 mg/kg), and ADC-3 administration groups (1 mg/kg and 3 mg/kg). During the entire experiment, ADC-3 was administered four times in total, via tail vein injection on Day 0, Day 4, Day 8, and Day 12, and AZD9291 was administered 29 times in total, once a day by intragastric administration. […] In terms of body weight, all animals in the tested drug groups had good tolerance. […] In this experiment, tumor-bearing mice had good tolerance to the tested drugs.

[3] = test system: AZD9291-resistant human adenosquamous carcinoma of the lung PDX model LUN #2210-4a; assay: Efficacy in AZD9291-resistant human lung cancer PDX model LUN #2210-4a; type: in vivo, immunodeficient mice; conditions: Day 28
Text: as §1
(§2) LUN #2210-4a is an AZD9291-resistant human adenosquamous carcinoma of the lung PDX model. […] During the entire experiment, ADC-3 was administered four times in total, via tail vein injection on Day 0, Day 4, Day 8, and Day 12, and AZD9291 was administered 28 times in total, once a day by intragastric administration. […] Tumor-bearing mice had good tolerance to the tested drugs.

[4] = test system: AZD9291-resistant human adenosquamous carcinoma of the lung PDX model LUN #2210-106; assay: Efficacy in AZD9291-resistant human lung cancer PDX model LUN #2210-106; type: in vivo, immunodeficient mice; conditions: Day 30
Text: as §1
LUN #2210-106 is an AZD9291-resistant human adenosquamous carcinoma of the lung PDX model. This experiment was performed in total of 4 groups, including a Vehicle group (ADC-3 vehicle), an AZD9291 administration group (5 mg/kg), and ADC-3 administration groups (1 mg/kg and 3 mg/kg). During the entire experiment, ADC-3 was administered four times in total, via tail vein injection on Day 0, Day 4, Day 8, and Day 12, and AZD9291 was administered 30 times in total, once a day by intragastric administration. […] Tumor-bearing mice had good tolerance to the tested drugs.

[5] = test system: AZD9291-resistant human large cell lung carcinoma PDX model LUN #2355-128; assay: Efficacy in AZD9291-resistant human lung cancer PDX model LUN #2355-128; type: in vivo, immunodeficient mice; conditions: Day 16
Procedure: as §1, with “extent.” for “extent. It has a high predictive value for the clinical therapeutic effect of drugs and has been increasingly used in cancer research (Hidalgo-2014) in recent years.”
This experiment was performed in total of 4 groups, including a Vehicle group (ADC-3 vehicle), an AZD9291 administration group (5 mg/kg), and ADC-3 administration groups (1 mg/kg and 3 mg/kg). During the entire experiment, ADC-3 was administered four times in total, via tail vein injection on Day 0, Day 4, Day 8, and Day 12, and AZD9291 was administered 27 times in total, once a day by intragastric administration. The experiment period was 27 days.

[6] = test system: AZD9291-resistant human adenosquamous carcinoma of the lung PDX model LUN #2441-118; assay: Efficacy in AZD9291-resistant human lung cancer PDX model LUN #2441-118; type: in vivo, immunodeficient mice; conditions: Day 25
Text: as §1
as §2, with “#2441-118” for “#2210-4a”, “administration. The experiment period was 28 days.” for “administration.”

[7] = 5 mg/kg intragastric once a day
[8] = AZD9291 dose 3 mg/kg in Table 4

## AK103: anti-PD-1 monoclonal antibody drug and immune checkpoint inhibitor
[1]; 5 mg/kg i.v. every three days
  Relative tumor proliferation rate T/C (%): 93.61%
  Tumor growth inhibition rate TGI %: 6.39%
[1]; 5 mg/kg
  Tumor inhibition activity: + (T/C (%) >40%)

## C=CC(=O)Nc1cc(Nc2nccc(-c3cn(C)c4ccccc34)n2)c(OC)cc1N(C)CCN(C)C [AZD9291, osimertinib, reference compound]
[2]; [7]
  Relative tumor proliferation rate T/C (%): 36.90%
  Tumor growth inhibition rate TGI %: 63.10%
[2]; 5 mg/kg
  Tumor inhibition activity: ++ (T/C (%) >20% and ≤40%)
[3]; [7]
  Relative tumor proliferation rate T/C (%): 68.99%
  Tumor growth inhibition rate TGI %: 31.01%
[3]; [8]
  Tumor growth inhibition rate TGI %: 31.01%
  Tumor inhibition activity: + (T/C (%) >40%)
[4]; [7]
  Relative tumor proliferation rate T/C (%): 65.31%
  Tumor growth inhibition rate TGI %: 34.69%
[4]; 5 mg/kg
  Tumor inhibition activity: + (T/C (%) >40%)
[5]; [7]
  Relative tumor proliferation rate T/C (%): 33.61%
  Tumor growth inhibition rate TGI %: 66.39%
[5]; 5 mg/kg
  Tumor inhibition activity: ++ (T/C (%) >20% and ≤40%)
[6]; [7]
  Relative tumor proliferation rate T/C (%): 29.35%
  Tumor growth inhibition rate TGI %: 70.65%
[6]; [8]
  Relative tumor proliferation rate T/C (%): 29.35%
  Tumor inhibition activity: ++ (T/C (%) >20% and ≤40%)
